Structures can show the parent of a compound that is named as a salt. Where two headings read alike, the source gives them in different places.
Tests used:
GST-ALK5 = target: T1, GST-ALK5 (Homo sapiens, UniProt P36897); assay: In-vitro (enzyme) kinase assay, 384-well flashplate (Example 36); assay type: biochemical; details: GST-ALK5, GST-SMAD2 substrate, 3 mM ATP, 30° C., 45 min; read-out: TβR activity (Example 36)
T1 sequence (P36897 34-503): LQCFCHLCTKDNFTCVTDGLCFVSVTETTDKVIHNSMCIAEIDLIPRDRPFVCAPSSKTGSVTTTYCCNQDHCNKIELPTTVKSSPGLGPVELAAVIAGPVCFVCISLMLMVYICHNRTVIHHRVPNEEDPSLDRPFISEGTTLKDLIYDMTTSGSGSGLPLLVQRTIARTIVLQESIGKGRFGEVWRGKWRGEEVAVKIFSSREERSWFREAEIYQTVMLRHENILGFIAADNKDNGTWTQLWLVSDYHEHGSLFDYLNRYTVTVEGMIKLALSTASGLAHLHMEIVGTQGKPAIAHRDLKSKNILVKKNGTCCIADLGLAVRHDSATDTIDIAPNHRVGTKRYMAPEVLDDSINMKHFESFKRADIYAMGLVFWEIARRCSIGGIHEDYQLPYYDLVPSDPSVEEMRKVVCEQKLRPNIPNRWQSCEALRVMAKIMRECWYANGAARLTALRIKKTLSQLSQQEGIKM
Procedure: In-vitro (Enzyme) Assay for Determination of the Efficacy of Inhibitors of the Inhibition of TGF-beta-Mediated Effects
The kinase assay was carried out as 384-well flashplate assay. 31.2 nM of GST-ALK5, 439 nM of GST-SMAD2 and 3 mM of ATP (with 0.3 μCi of ^33P-ATP/well) were incubated in a total volume of 35 μl (20 mM of HEPES, 10 mM of MgCl2, 5 mM of MnCl2, 1 mM of DTT, 0.1 of BSA, pH 7.4) without or with test substance (5-10 concentrations) at 30° C. for 45 min. The reaction was stopped using 25 μl of 200 mM EDTA solution, filtered with suction at room temperature after 30 min, and the wells were washed with 3 times 100 μl of 0.9% NaCl solution. Radioactivity was measured in the TopCount. The IC50 values were calculated using RS1.

[1] = system: TGF-beta-induced phosphorylation of Smad2 and Smad3 in Mv1-Lu cells; assay: Inhibition of Smad2/3 phosphorylation in Mv1Lu cells (Example 35A); assay type: cell-based, mink Mustela vison; details: Neogale vison, read-out: TβR activity (Example 35A)
Procedure: Inhibition of Smad2/3 Phosphorylation in Mv1Lu Cells by TGF-bta Receptor I Kinase Inhibitors
This assay was used to determine the inhibitory potency of compounds on TGF-beta-induced phosphorylation of Smad2 (Ser465/467) and Smad3 (Ser423/425). Mv1-Lu cells (lung epithelial cell line from mink Mustela vison; ATCC number: CCL-64) were seeded in DMEM (Invitrogen) supplemented with 10% fetal bovine serum (Pan Biotech) at a defined cell density in 24-well or 96-well plates (24-well plate: 1.5×10^5 cells per well; 96-well plate: 4×10^4 cells per well). Cell cultures were incubated in DMEM at 37° C. and 10% CO2. On the next day, the medium was replaced and cells were serum-starved for 16-20 hours. The following day, serial dilutions of compounds were added to the wells, pre-incubated for 1.5 hrs before recombinant TGF-beta 1 ligand (final concentration 5 ng/ml; R&D systems) was added. After one hour of ligand stimulation, lysates were prepared and analyzed using an enzyme-linked immunosorbent assay kit (PathScan Phospho-Smad2 Kit, Cell Signaling Technologies). The ELISA detects phosphorylated Smad2 as well as phosphorylated Smad3 with the phospho-specific antibody. TGF-beta stimulated cells and unstimulated cells served as positive and negative controls (100% and background control). The concentration of the vehicle DMSO was kept constant at 0.2% (v/v) in all wells. Dose-response relationships were fitted using curve fitting algorithms of the RS1 statistics software package (Brooks Automation Inc. RS/1—Statistical Tools Handbook. Release 6.2) to determine the concentration at which half-maximal inhibition (IC50) of Smad2/3 phosphorylation was achieved.

[2] = Mv1-Lu cells, TGF-beta 1 5 ng/ml, phospho-Smad2/3 ELISA

SMILES	IC50 (GST-ALK5)	IC50 [1, 2]	IC50 [1]
CN1CCC(n2cc(-c3cncc(-c4cc(-c5cc(Cl)ccc5F)nc5ncccc45)c3)cn2)C1 (stereo not drawn) [compound 58, 2-(5-Chloro-2-fluoro-phenyl)-4-{5-[1-(1-methyl-pyrrolidin-3-yl)-1H-pyrazol-4-yl]-pyridin-3-yl}-[1,8]naphthyridine]	< 100 nM	< 100 nM	
Fc1ccccc1-c1cc(-c2cncc(-c3cccnc3)c2)c2cccnc2n1 [compound 125, 4-[3,3′]Bipyridinyl-5-yl-2-(2-fluoro-phenyl)-[1,8]naphthyridine]	1000 to 10000 nM	1000 to 10000 nM	
Nc1ncc(-c2cc(-c3ccccc3F)nc3ncccc23)c2ccncc12 [compound 72, 4-[2-(2-fluoro-phenyl)-[1,8]naphthyridin-4-yl]-[2,7]naphthyridin-1-ylamine]	< 100 nM	100 to 1000 nM	
Fc1ccc(Cl)cc1-c1cc(-c2cncc(-c3ccc(CCN4CCCC4)cc3)c2)c2cccnc2n1 [compound 172, 2-(5-Chloro-2-fluoro-phenyl)-4-{5-[4-(2-pyrrolidin-1-yl-ethyl)-phenyl]-pyridin-3-yl}-[1,8]naphthyridine]	< 100 nM	< 100 nM	
Nc1ncc(-c2cnn(C3CCNCC3)c2)cc1-c1cc(-c2cc(Cl)ccc2F)nc2ncccc12 [compound 13, 3-[2-(5-Chloro-2-fluoro-phenyl)-[1,8]naphthyridin-4-yl]-5-(1-piperidin-4-yl-1H-pyrazol-4-yl)-pyridin-2-ylamine dihydrochloride]	< 100 nM		< 100 nM
OCCN1CCC(n2cc(-c3cncc(-c4cc(-c5ccccc5F)nc5ncccc45)c3)cn2)CC1 [compound 53, 2-[4-(4-{5-[2-(2-Fluoro-phenyl)-[1,8]naphthyridin-4-yl]-pyridin-3-yl}-pyrazol-1-yl)-piperidin-1-yl]-ethanol]	< 100 nM	< 100 nM	
CN1CCN(c2cncc(-c3cncc(-c4cc(-c5cc(Cl)ccc5F)nc5ncccc45)c3)c2)CC1 [compound 171, 2-(5-Chloro-2-fluoro-phenyl)-4-[5′-(4-methyl-piperazin-1-yl)-[3,3′]bipyridinyl-5 yl]-[1,8]naphthyridine]	< 100 nM	< 100 nM	
Nc1cccnc1-c1cncc(-c2cc(-c3cc(Cl)ccc3F)nc3ncccc23)c1 [compound 129, 5′-[2-(5-Chloro-2-fluoro-phenyl)-[1,8]naphthyridin-4-yl]-[2,3′]bipyridinyl-3-ylamine]	> 10000 nM	> 10000 nM	
Fc1ccc(Cl)cc1-c1cc(-c2cnccc2-c2ccccc2)c2cccnc2n1 [compound 98, 2-(5-Chloro-2-fluoro-phenyl)-4-(4-phenyl-pyridin-3-yl)-[1,8]naphthyridine]	1000 to 10000 nM	1000 to 10000 nM	
Fc1ccccc1-c1cc(-c2cncc(-c3nccc(N4CCNCC4)n3)c2)c2cccnc2n1 [compound 71, 2-(2-fluoro-phenyl)-4-[5-(4-piperazin-1-yl-pyrimidin-2-yl)-pyridin-3-yl]-[1,8]naphthyridine]	< 100 nM	1000 to 10000 nM	
Fc1ccc(Cl)cc1-c1cc(-c2cncc3ccccc23)c2cccnc2n1 [compound 2, 2-(5-Chloro-2-fluoro-phenyl)-4-isoquinolin-4-yl-[1,8]naphthyridine]	100 to 1000 nM	1000 to 10000 nM	
NCCOc1cccc(-c2cncc(-c3cc(-c4cc(Cl)ccc4F)nc4ncccc34)c2)c1 [compound 143, 2-(3-{5-[2-(5-Chloro-2-fluoro-phenyl)-[1,8]naphthyridin-4-yl]-pyridin-3-yl}-phenoxy)-ethylamine]	< 100 nM	100 to 1000 nM	
Fc1ccc(C(F)(F)F)cc1-c1cc(-c2cncc(-c3cnn(CCN4CCOCC4)c3)c2)c2cccnc2n1 [compound 34, 2-(2-Fluoro-5-trifluoromethyl-phenyl)-4-{5-[1-(2-morpholin-4-yl-ethyl)-1H-pyrazol-4-yl]-pyridin-3-yl}-[1,8]naphthyridine]	< 100 nM	100 to 1000 nM	
Cc1cccc(-c2cc(-c3cncc(-c4ccccc4)c3)c3cccnc3n2)n1 [compound 5, 2-(6-Methyl-pyridin-2-yl)-4-(5-phenyl-pyridin-3-yl)-[1,8]naphthyridine]	100 to 1000 nM	1000 to 10000 nM	
CN1CCN(c2cccc(-c3cncc(-c4cc(-c5cc(Cl)ccc5F)nc5ncccc45)c3)n2)CC1 [compound 141, 2-(5-Chloro-2-fluoro-phenyl)-4-[6-(4-methyl-piperazin-1-yl)-[2,3′]bipyridinyl-5′-yl]-[1,8]naphthyridine]	100 to 1000 nM	100 to 1000 nM	
Cn1cc(-c2cc(-c3cc(-c4cc(Cl)ccc4F)nc4ncccc34)c[n+]([O-])c2)cn1 [compound 22, 2-(5-chloro-2-fluoro-phenyl)-4-[5-(1-methyl-1H-pyrazol-4-yl)-1-oxy-pyridin-3-yl]-[1,8]naphthyridine]	1000 to 10000 nM	1000 to 10000 nM	
Fc1ccc(Cl)cc1-c1cc(-c2cncc(-c3cccc(OCCN4CCCC4)c3)c2)c2cccnc2n1 [compound 158, 2-(5-Chloro-2-fluoro-phenyl)-4-{5-[3-(2-pyrrolidin-1-yl-ethoxy)-phenyl]-pyridin-3-yl}-[1,8]naphthyridine]	< 100 nM	< 100 nM	
CC(C)N1CCc2ccc(-c3cncc(-c4cc(-c5cc(Cl)ccc5F)nc5ncccc45)c3)cc2C1 [compound 176, 2-(5-Chloro-2-fluoro-phenyl)-4-[5-(2-isopropyl-1,2,3,4-tetrahydro-isoquinolin-7-yl)-pyridin-3-yl]-[1,8]naphthyridine]	< 100 nM	< 100 nM	
OCC(O)Cn1cc(-c2cncc(-c3cc(-c4cc(F)ccc4F)nc4ncccc34)c2)cn1 (stereo not drawn) [compound 88, 3-(4-{5-[2-(2,5-Difluoro-phenyl)-[1,8]naphthyridin-4-yl]-pyridin-3-yl}-pyrazol-1-yl)-propane-1,2-diol]	< 100 nM	1000 to 10000 nM	
Fc1ccc(Cl)cc1-c1cc(-c2cncc(-c3ccccc3)c2)c2cccnc2n1 [compound 4, 2-(5-Chloro-2-fluoro-phenyl)-4-(5-phenyl-pyridin-3-yl)-[1,8]naphthyridine]	100 to 1000 nM	100 to 1000 nM	
COc1cccc(-c2cncc(-c3cc(-c4cc(Cl)ccc4F)nc4ncccc34)c2)n1 [compound 111, 2-(5-Chloro-2-fluoro-phenyl)-4-(6-methoxy-[2,3′]bipyridinyl-5′-yl)-[1,8]naphthyridine]	100 to 1000 nM	100 to 1000 nM	
Fc1ccc(Cl)cc1-c1cc(-c2cccnc2-c2ccccc2)c2cccnc2n1 [compound 101, 2-(5-Chloro-2-fluoro-phenyl)-4-(2-phenyl-pyridin-3-yl)-[1,8]naphthyridine]	> 10000 nM	> 10000 nM	
COCCN1CCC(n2cc(-c3cncc(-c4cc(-c5cc(Cl)ccc5F)nc5ncccc45)c3)cn2)CC1 [compound 44, 2-(5-chloro-2-fluoro-phenyl)-4-(5-{1-[1-(2-methoxy-ethyl)-piperidin-4-yl]-1H-pyrazol-4-yl}-pyridin-3-yl)-[1,8]naphthyridine]	< 100 nM	< 100 nM	
Fc1ccc(Cl)cc1-c1cc(-c2cccc(-c3ccccc3)n2)c2cccnc2n1 [compound 12, 2-(5-Chloro-2-fluoro-phenyl)-4-(6-phenyl-pyridin-2-yl)-[1,8]naphthyridine]	> 10000 nM	> 10000 nM	
